How the values were obtained:
AGS cells = test: Inhibition of ERK phosphorylation of AGS cells (HTRF method); format: cell-based; conditions: phosphorylated ERK/total ERK ratio, 1 h incubation
Procedure: AGS cells (Nanjing Cobioer, CBP60476) were cultured in RPMI1640 (Hyclone, SH30809.01) complete medium containing 10% fetal bovine serum. On the first day of the experiment, the AGS cells were seeded into a 96-well plate with complete medium at a density of 40,000 cells/well to form 190 µL of cell suspension per well. The plate was incubated overnight in a cell incubator at 37 °C with 5% CO2.
The next day, 10 µL of serially-diluted test compound prepared from the complete medium was added to each well. The final concentrations of the compound were 9 concentration points obtained by 5-fold serial dilution from 10 µM. A blank control containing 0.5% DMSO was set. The well plate was incubated in a cell incubator at 37 °C with 5% CO2 for 1 h. After completion of incubation, the 96-well cell culture plate was taken out, the medium was removed by pipetting, 200 µL PBS (Shanghai BasalMedia Technologies Co., Ltd., B320) was added to each well, and the cells were washed once. PBS was removed by pipetting, 50 µL of lysis buffer (Cisbio, 64KL1FDF) containing a blocking solution (blocking reagent, Cisbio, 64KB1AAC) was added to each well, and the well plate was lysed on a shaker for 40 min at room temperature with shaking. After lysis, the lysate was pipetted and mixed well, 16 µL of lysate was transferred to two HTRF 96-well assay plates (Cisbio, 66PL96100) per well, and then 4 µL of premixed phosphorylated ERK1/2 antibody solution (Cisbio, 64AERPEG) or 4 µL of premixed total ERK1/2 antibody solution (Cisbio, 64NRKPEG) was added to these two plates. The microplate was sealed with a sealing membrane, centrifuged for 1 min in a microplate centrifuge, and incubated overnight at room temperature in the dark. On the third day, the fluorescence values at an excitation wavelength of 337 nm and at emission wavelengths of 665 nm and 620 nm were read using an ENVISION multifunctional microplate reader (PerkinElmer, ENVISION).
Table 1. Inhibitory activity data for ERK phosphorylation of AGS cells

GP2d cells = test: Inhibition of 3D proliferation of GP2d cells (CellTiter-Glo 3D); format: cell-based; conditions: 120 h incubation
Procedure: GP2d cells (Nanjing Cobioer, CBP60010) were cultured in a complete medium, namely DMEM/high glucose medium (Hyclone, SH30243.01) containing 10% fetal bovine serum (Corning, 35-076-CV). On the first day of the experiment, GP2d cells were seeded into a 96-well low adsorption plate (Corning, CLS7007-24EA) with complete medium at a density of 1,000 cells/well to form 90 µL of cell suspension per well. The plate was centrifuged at 2,000 rpm for 5 min at room temperature and then incubated overnight in a cell incubator at 37 °C with 5% CO2.
The next day, 10 µL of serially-diluted test compound prepared from the complete medium was added to each well. The final concentrations of the compound of GP2d cells were 9 concentration points obtained by 3-fold serial dilution from 1 µM, and the final concentrations of the compound of AGS cells were 9 concentration points obtained by 3-fold serial dilution from 10 µM. A blank control containing 0.5% DMSO was set. The well plate was incubated in a cell incubator at 37 °C with 5% CO2 for 120 h. On the seventh day, the 96-well cell culture plate was taken out, 50 µL CellTiter-Glo® 3D reagent (Promega, G9682) was added into each well, the plate was shaken at room temperature for 25 min, pipetted and mixed well, 50 µL of the solution was transferred into a white impermeable 96-well plate (PE, 6005290), and the luminescence signal values were read using a multifunctional microplate reader (PerkinElmer, ENVISION).
Table 2. Inhibitory activity data for 3D proliferation of AGS and GP2d cells

Structure (SMILES): CCc1cccc2cc(O)cc(-c3cc4nc(OC[C@@]56CCCN5C[C@H](F)C6)nc5c4c(n3)OCC3C4CCC(CN53)N4)c12 (mixture of isomers) [Diastereomeric (1:1) mixture of 2-p1 and 2-p2]
- IC50 (AGS cells; Homo sapiens, AGS): 6.6 nM
- IC50 (GP2d cells): 19.9 nM

Structure (SMILES): Oc1cc(-c2cc3nc(OC[C@@]45CCCN4C[C@H](F)C5)nc4c3c(n2)OCC2C3CCC(CN42)N3)c2c(F)cccc2c1 (single isomer, unassigned) [Diastereomeric (1:1) mixture of 1-p1 and 1-p2]
- IC50 (AGS cells): 94.1 nM

Structure (SMILES): CCc1cccc2cc(O)cc(-c3nc4c5c(nc(OC[C@@]67CCCN6C[C@H](F)C7)nc5c3F)N3CC5CCC(N5)C3CO4)c12 (single isomer, unassigned) [Diastereomeric (1:1) mixture of 4-p1 and 4-p2]
- IC50 (AGS cells): 1.35 nM

Structure (SMILES): CCc1cccc2cc(O)cc(-c3cc4c5c(nc(OC[C@@]67CCCN6C[C@H](F)C7)nc5c3F)N3CC5CCC(N5)C3CO4)c12 (single isomer, unassigned) [Diastereomeric (1:1) mixture of 11-p1 and 11-p2]
- IC50 (AGS cells): 15.6 nM
- IC50 (GP2d cells): 62.5 nM

Structure (SMILES): CCc1cccc2cc(O)cc(-c3nc4c5c(nc(OC[C@@]67CCCN6C[C@H](F)C7)nc5c3F)N3C[C@@H]5CC[C@@H](N5)[C@@H]3CO4)c12 [Example 4-p2, 5-Ethyl-4-((5aR,6R,9S)-1-fluoro-12-(((2R,7aS)-2-fluorotetrahydro-1H-pyrrolizin-7a(5H )-yl)methoxy)-5a,6,7,8,9,10-hexahydro-5H-4-oxa-3,10a,11,13,14-pentaaza-6,9-methanonaphtho[1,8-ab]heptalen-2-yl)naphthalen-2-ol]
- IC50 (AGS cells; Homo sapiens, AGS): 86.5 nM

Structure (SMILES): CCc1c(F)ccc2cc(O)cc(-c3nc4c5c(nc(OC[C@@]67CCCN6C[C@H](F)C7)nc5c3F)N3C[C@@H]5CC[C@@H](N5)[C@@H]3CO4)c12 [Example 9-p2, 5-Ethyl-6-fluoro-4-((5aR,6R,9S)-1-fluoro-12-(((2R,7aS)-2-fluorotetrahydro-1H-pyrrolizin-7a(5H)-yl)methoxy)-5a,6,7,8,9,10-hexahydro-5H-4-oxa-3,10a,11,13,14-pentaaza-6,9-methanonaphtho[1,8-ab]heptalen-2-yl)naphthalen-2-ol]
- IC50 (AGS cells; Homo sapiens, AGS): 60.4 nM

Structure (SMILES): Oc1cc(Cl)c(C(F)(F)F)c(-c2nc3c4c(nc(OC[C@@]56CCCN5C[C@H](F)C6)nc4c2F)N2C[C@H]4CC[C@H](N4)[C@H]2CO3)c1 [Example 14-p1, 3-Chloro-5-((5aS,6S,9R)-1-fluoro-12-(((2R,7aS)-2-fluorotetrahydro-1H-pyrrolizin-7a(5 H)-yl)methoxy)-5a,6,7,8,9,10-hexahydro-5H-4-oxa-3,10a,11,13,14-pentaaza-6,9-methanonaphtho[1,8-ab]heptalen-2-yl)-4-(trifluoromethyl)phenol]
- IC50 (AGS cells; Homo sapiens, AGS): 20.2 nM

Structure (SMILES): CCc1c(F)ccc2cc(O)cc(-c3nc4c5c(nc(OCC6(CN7CCC[C@@H]7CO)CC6)nc5c3F)N3C[C@H]5CC[C@H](N5)[C@H]3CO4)c12 [Example 15, 5-Ethyl-6-fluoro-4-((5aS,6S,9R)-1-fluoro-12-((1-(((R)-2-(hydroxymethyl)pyrrolidin-1-yl)methyl)cyclopropyl)methoxy)-5a,6,7,8,9,10-hexahydro-5H-4-oxa-3,10a,11,13,14-pentaaza-6,9-methanonaphtho[1,8-ab]heptalen-2-yl)naphthalen-2-ol]
- IC50 (AGS cells; Homo sapiens, AGS): 13.4 nM
- IC50 (GP2d cells): 7.2 nM

Structure (SMILES): CCc1c(F)ccc2cc(O)cc(-c3nc4c5c(nc(OCC6(CN7CC=C[C@@H]7CO)CC6)nc5c3F)N3C[C@H]5CC[C@H](N5)[C@H]3CO4)c12 [Example 16, 5-Ethyl-6-fluoro-4-((5aS,6S,9R)-1-fluoro-12-((1-(((R)-2-(hydroxymethyl)-2,5-dihydro-1 H-pyrrol-1-yl)methyl)cyclopropyl)methoxy)-5a,6,7,8,9,10-hexahydro-5H-4-oxa-3,10a, 1 1,13,14-pentaaza-6,9-methanonaphtho[1,8-ab]heptalen-2-yl)naphthalen-2-ol]
- IC50 (AGS cells; Homo sapiens, AGS): 11.6 nM
- IC50 (GP2d cells): 10.1 nM

Structure (SMILES): CCc1c(F)ccc2cc(O)cc(-c3nc4c5c(nc(OCC6(CN7CC=C[C@H]7CO)CC6)nc5c3F)N3C[C@H]5CC[C@H](N5)[C@H]3CO4)c12 [Example 18, 5-Ethyl-6-fluoro-4-((5aS,6S,9R)-1-fluoro-12-((1-(((S)-2-(hydroxymethyl)-2,5-dihydro-1 H-pyrrol-1-yl)methyl)cyclopropyl)methoxy)-5a,6,7,8,9,10-hexahydro-5H-4-oxa-3,10a, 1 1,13,14-pentaaza-6,9-methanonaphtho[1,8-ab]heptalen-2-yl)naphthalen-2-ol]
- IC50 (AGS cells; Homo sapiens, AGS): 10.5 nM
- IC50 (GP2d cells): 39.3 nM

Structure (SMILES): CCc1c(F)ccc2cc(O)cc(-c3nc4c5c(nc(OCC6(CN7C[C@@H]8C[C@@H]8[C@@H]7CO)CC6)nc5c3F)N3C[C@H]5CC[C@H](N5)[C@H]3CO4)c12 [Example 19, 5 -Ethyl-6-fluoro-4-((5aS,6S,9R)-1-fluoro-12-((1-(((1S,2R,5R)-2-(hydroxymethyl)-3-azabicyclo[3.1.0]hex-3-yl)methyl)cyclopropyl)methoxy)-5a,6,7,8,9,10-hexahydro-5H-4-oxa-3,10a,11,13,14-pentaaza-6,9-methanonaphtho[1,8-ab]heptalen-2-yl)naphthalen-2-ol]
- IC50 (AGS cells; Homo sapiens, AGS): 31.1 nM
- IC50 (GP2d cells): 28.9 nM

Structure (SMILES): CCc1c(F)ccc2cc(O)cc(-c3nc4c5c(nc(OCC6(CN7C[C@@H]8C[C@@H]8[C@H]7CO)CC6)nc5c3F)N3C[C@H]5CC[C@H](N5)[C@H]3CO4)c12 [Example 20, 5 -Ethyl-6-fluoro-4-((5aS,6S,9R)-1-fluoro-12-((1-(((1S,2S,5R)-2-(hydroxymethyl)-3-azabicyclo[3.1.0]hex-3-yl)methyl)cyclopropyl)methoxy)-5a,6,7,8,9,10-hexahydro-5H-4-oxa-3,10a,11,13,14-pentaaza-6,9-methanonaphtho[1,8-ab]heptalen-2-yl)naphthalen-2-ol]
- IC50 (AGS cells; Homo sapiens, AGS): 14 nM
- IC50 (GP2d cells): 8.8 nM

Structure (SMILES): CCc1c(F)ccc2cc(O)cc(-c3nc4c5c(nc(OCC6(CN7C[C@H]8C[C@H]8[C@@H]7CO)CC6)nc5c3F)N3C[C@H]5CC[C@H](N5)[C@H]3CO4)c12 [Example 21, 5 -Ethyl-6-fluoro-4-((5aS,6S,9R)-1-fluoro-12-((1-(((1R,2R,5S)-2-(hydroxymethyl)-3-azabicyclo[3.1.0]hex-3-yl)methyl)cyclopropyl)methoxy)-5a,6,7,8,9,10-hexahydro-5H-4-oxa-3,10a,11,13,14-pentaaza-6,9-methanonaphtho[1,8-ab]heptalen-2-yl)naphthalen-2-ol]
- IC50 (AGS cells; Homo sapiens, AGS): 8.1 nM
- IC50 (GP2d cells): 14.7 nM

Structure (SMILES): CCc1c(F)ccc2cc(O)cc(-c3nc4c5c(nc(OCC6(CN7CCC[C@H]7COC(=O)N(C)C)CC6)nc5c3F)N3C[C@H]5CC[C@H](N5)[C@H]3CO4)c12 [Example 25, ((S)-1-((1-((((5aS,6S,9R)-2-(8-ethyl-7-fluoro-3-hydroxynaphthalen-1-yl)-1-fluoro-5a,6,7,8,9,10-hexahydro-5H-4-oxa-3,10a,11,13,14-pentaaza-6,9-methanonaphtho[1,8-ab]heptalen-12-yl)oxy)methyl)cyclopropyl)methyl)pyrrolidin-2-yl)methyl dimethylcarbamate]
- IC50 (AGS cells; Homo sapiens, AGS): 23.5 nM
- IC50 (GP2d cells): 48.5 nM

From patent EP4361157A1, “FUSED TETRACYCLIC COMPOUND, PREPARATION METHOD THEREFOR AND APPLICATION THEREOF IN MEDICINE” (Jiangsu Hengrui Pharmaceuticals Co., Ltd., priority 2021, dated 2022)
